We go through 3 compounds from US20110034565A1, “PSYCHO-PHARMACEUTICALS” (University College Dublin, National University of Ireland, …, priority 2008, published 2011).

SMILES strings stand for the structures. Entries after “also recorded” stand apart in the source; their conditions may differ.

The test system of series [1] is C57B16 mice. In words: Water maze spatial learning. Format: in vivo. As to conditions: i.p. once daily prior to testing, FIG. 6. How it is done: The Morris water maze (MWM) is a test of spatial learning for rodents that relies on distal cues to navigate from start locations around the perimeter of an open swimming arena to locate a submerged escape platform. Spatial learning is assessed across repeated trials and reference memory is determined by preference for the platform area when the platform is absent.
The test apparatus consists of a large circular pool (1 m diameter, 80 cm high, temperature 26° C.) with a platform (11 cm diameter) submerged 1.5 cm below the surface. Both the pool and the platform were constructed of black polyvinyl plastic, which offered no intra-maze cues. The experimental room contained several extra-maze visual cues. During training the platform was hidden in the same quadrant 30 cm away from the edge of the maze. There were five trials, each of them beginning with the rat facing the wall of the maze in one of three different locations. The time taken for the rat to find the platform within a 90s period was recorded. Probe trials where the platform was removed from the maze and the time the animal spent in the target quadrant were also performed. […]
Finally, drugs inducing neurobehavioural profile are evaluated in the water maze spatial learning paradigm, a robust task of information acquisition and consolidation—a measure of cognitive action

The subject of series [2] is C57B16 mice. In words: Novel object recognition (NOR) test. Format: in vivo. As to conditions: FIG. 4. An excerpt:
This test is useful for evaluating the role of experimental manipulations on cognition. The recognition test is based on the natural tendency of rodents to investigate a novel object instead of a familiar one. The choice to explore the novel object reflects the use of learning and (recognition) memory processes. Novel Object Recognition (NOR) is based on the premise that rodents will explore a novel object more than a familiar one, but only if they remember the familiar one. This tendency is actually shared by humans, as looking time is often used to make inferences about an infant's memory in the absence of explicit, verbal recognition.
Before training the animals with objects, they are first allowed to acclimatise to the testing environment, a white Perspex box (30 cm by 20 cm) equipped with an overhead camera. After an acclimation session, the animals are ready for the training stage. […]
The amount of time that the rodents spends exploring each object can be calculated by hand or by using a computer program receiving input from the overhead camera. […]

For series [3], the system named is rats reared in isolation. In words: Pre-pulse inhibition (PPI) of the startle response in rats reared in isolation. The note with it: 20 mg/kg, p<0.05, two-way ANOVA, FIG. 5B. Format: in vivo. An excerpt:
This reduction or inhibition of startle is not observed in the isolated animals.
One of the most robust, non-invasive rodent models used for studies relating to schizophrenia is isolation rearing of rats (Weiss and Feldon, 2001; Fone and Porkess, 2008). […] PPI is used as an operational measure of sensorimotor gating and is known to be defective in schizophrenics (Swerdlow et al., 1994; Ludewig et al., 2002). […] Reduction or inhibition of startle is not observed in the isolated animals control.

In series [4] the test system is C57B16 mice. In words: Open field test. The series is classed as in vivo. The note with it: 20 and 50 mg/kg i.p. once daily for 7 days prior to testing, FIG. 3. An excerpt: The Open Field test is designed to measure behavioural responses such as locomotor activity, hyperactivity, and exploratory behaviors. Open Field is also used as a measure of anxiety. Rats and mice tend to avoid brightly illuminated, novel, open spaces, so the open field environment acts as an anxiogenic stimulus and allows for measurement of anxiety-induced locomotor activity and exploratory behaviours. Open field testing is a one trial test with little or no impact on the animal's subsequent behaviour. The apparatus for the Open Field test was a square (100 cm by 100 cm) made of white Perspex. Each rat is placed in a corner of the field and its behaviour recorded for five minutes. All activity is recorded by a video camera mounted above the open field and scored in real-time (or digitized and scored later) by the advanced motion-recognition software package Ethovision by Noldus, that detects and analyzes the movements of the rat or mouse. The total distance, average speed, rearing/elongation behaviour, and time spent in various parts of the field (such as, for example, the border areas vs. the open, middle area) is measured and analysed. Testing is carried out in a temperature, noise and light controlled room.
The Experimental protocol employed in the behavioural evaluation of Meparfynol is outlined in FIG. 7. Two separate cohorts of C57B16 mice were employed. […]

For series [5], the system named is C57B16 mice. In words: Pre-pulse inhibition (PPI) of the startle response in mice. Format: in vivo. As to conditions: 20 mg/kg i.p., FIG. 5A. From the text:
Prepulse inhibition is a procedure whereby a preceding stimulus attenuates the startle response. The reduced ability to filter out irrelevant auditory stimulation is a characteristic which is thought to contribute to certain manifestations of conditions including inattention, distractibility, and cognitive deficits. The test is quite useful for evaluating transgenic models of schizophrenia as well as to screen potential antipsychotic drugs.
An example of one way of testing for PPI: In the prepulse inhibition (PPI) procedure, the rodent is placed in a small chamber and exposed to a brief pulse of noise. […]
The main three parts of the procedure are prepulse, startle stimulus, and startle reflex. […] Startle response is measured in rodents using the so-called automated “startle chambers” or “stabilimeter chambers”, with detectors recording whole-body reaction. In humans, the movements of oculomotor muscles (“eye-blink reflex” or “eye-blink response” assessed using electromyographic recording of orbicularis oculi muscle and by oculography) could be used as a measure. […]
Mepfarynol was administered by the intraperitoneal route at the doses indicated and as per details outlined above. Values were analysed using a two way ANOVA and Student t-test and those with a p value<0.05 were accepted as significant and where appropriate are indicated with an asterisk.

The test system of series [6] is C57B16 mice. In words: Neurobehavioural screening (modified SHIRPA protocol), neophobia. The series is classed as in vivo. The note with it: chronic administration protocol, 1 dose/day prior to testing. How it is done:
The Experimental protocol employed in the behavioural evaluation of Meparfynol is outlined in FIG. 7. Two separate cohorts of C57B16 mice were employed. Cohort 1 was used to evaluate the drug effect on prepulse inhibition, open-field and novel object recognition. Cohort 2 was used to evaluate drug effects on spatial learning. The behavioural tests were administered in sequence as per day number indicated in the bar. The drug was administered by the intraperitoneal route and on the day of training the drug was administered after the behavioural analysis. Meparfynol/UCD-1216 was administered at doses of 20 and 50 mg/kg. The compounds were administered once daily, via the intraperitoneal route, for 7 days prior to testing and the animals were drug-free at time of training.
A modified SHIRPA protocol was adopted in order to provide an in vivo drug profile. The SHIRPA protocol is used in both academic and industrial environments for an initial behavioural characterisation of potential psychopharmaceuticals. The first behavioural tier analysis of our modified screen comprised open-field (FIG. 3), novel object recognition (NOR; FIG. 4), and pre-pulse inhibition (PPI; FIGS. 5A and 5B) paradigms. These psycho-pharmacological tests are described in more detail below: […]

In series [7] the test system is receptors (cell lines that express only one type of receptor). In words: Novascreen receptor affinity screen (competition with a reference ligand). The note with it: 1 μM Meparfynol, all top ranking receptors; FIG. 8C. The series is classed as binding. How it is done:
Analysis of receptor affinities was performed by Novascreen™ (www.novascreen.com) and those displacing >20% of the natural ligand are indicated by the filled boxes. Blood levels of Mepfarynol were determined by GC mass spectroscopy in separate samples taken from a cannulated jugular at increasing time intervals following a single intraperitoneal injection of the drug ([…]).
The higher the target inhibition value, the greater the affinity Meparfynol has for this particular receptor as it displaces a greater proportion of the reference ligand. This assay is an automated high throughput assay performed on cell lines that express only one type of receptor and was carried out by Novascreen (www.novascreen.com).

The conditions of series [8]: in vivo; cited from earlier work.
Series [9] has as its system frontal cortex. The note with it: after administration; Society for Neuroscience meeting November 2000; cited from earlier work.

Turning to `C#C[C@](C)(O)CC` (stereo in doubt) [Meparfynol, 3-methylpent-1-yn-3-ol], in series [1], the “spatial learning in the water maze” value is “enhanced spatial learning; also recorded: significant pro-cognitive actions”. Besides, in series [2] (20 and 50 mg/kg i.p. once daily for 7 days prior to testing), the “working memory as measured by the NOR test (exploratory bias for the novel object)” value is “modest enhancement”. In addition, in series [2] (compared to the vehicle-treated controls), the “novel object exploratory time” value is “significantly reduced”. Further, the “pre-pulse inhibition of startle response” value in [3] and in [5] was “significantly enhances” each time. In addition, in series [4], the “effect in the open-field paradigm (locomotor activity)” value is listed as “little effect”. The “neophobia (fear of anything new)” value in series [6] was “reduced neophobia”. For the same compound, in series [7], the “percent target inhibition (reference ligand prevented from binding)” value is “less than 20%”.

On to `CC12CC3CC(C)(C1)CC(N)(C3)C2` [Memantine, 1-amino-3,5-dimethyl adamantane], for which, in series [8], the “administered dose excreted unchanged in urine” value was 57-82%.

In the case of `COc1ccc(NS(=O)(=O)c2sc3ccc(Cl)cc3c2C)cc1N1CCNCC1` [SB-271046], in [9], the “glutamate and aspartate levels in the frontal cortex” value is on record as “significant increase”; the “noradrenaline, dopamine or 5-HT levels” value was “without affecting”.
